Source: patent publication US11912668B2, “GCN2 and perk kinase inhibitors and methods of use thereof” (Deciphera Pharmaceuticals, LLC, priority 2020, dated 2024)

Columns and labels:
[1] = test system: ATF4 in CCRF-CEM leukemia cells (PERK); assay: CCRF-CEM TG ATF4 ELISA, phenotypic assay for cellular inhibition of PERK preactivated by thapsigargin; format: cell-based; settings: Homo sapiens; Thapsigargin (1 μM) stimulated CCRF-CEM cells
PERK kinase = PERK kinase (Homo sapiens (Human), UniProt Q9NZJ5); assay: Biochemical assay for PERK (coupled pyruvate kinase/lactate dehydrogenase assay); settings: 1 mM ATP, rate from 2-3 h time frame
Outline: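 Coupled pyruvate kinase/lactate dehydrogenase readout of ATP hydrolysis via NADH oxidation (A340), 10 nM PERK, 0.25 mg/mL myelin basic protein, 1 mM ATP, pH 7.5 Tris/MgCl2 buffer, 1% DMSO. Absorbance followed 6 h at 30° C; rate from the 2-3 h window, normalised to no-compound and known-inhibitor controls, IC50 fitted.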

GCN2 kinase = GCN2 kinase (Homo sapiens (Human), UniProt Q9P2K8); assay: Biochemical assay for GCN2 (TR-FRET kinase activity assay); settings: 1 mM ATP, 3-hour incubation
Outline: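 TR-FRET assay with 2 nM GCN2, 130 nM GFP-eIF2α substrate, 0.2 mg/mL E. coli tRNA and 1 mM ATP; compounds (0.5% DMSO) reacted 3 h. Stopped with 20 mM EDTA plus 2 nM Tb-anti-peIF2α (pSer52), 60 min RT; 520/490 ratio converted to % inhibition, IC50 from four-parameter fit.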

CCRF-CEM leukemia cells = assay: CCRF-CEM ASNase cell proliferation assay, phenotypic assay for cellular inhibition of GCN2; format: cell-based; settings: Homo sapiens; ASNase treated CCRF-CEM cells, 1 mU/mL ASNase, 72 h
Outline: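 Cells were seeded at ten thousand per well in RPMI-1640 with 10% heat-inactivated FBS and treated in triplicate with serially diluted compound plus 1 mU/mL ASNase for 72 h at 37 °C, 5% CO2. Resazurin was then added for 6 h, with fluorescence read at ex 540/em 600 nm to derive IC50 values.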

[2] = test system: ATF4 in H929 multiple myeloma cells; assay: H929 ATF4 ELISA assay (stimulation of cellular ATF4); format: cell-based; settings: 4 h, no thapsigargin
Experimental: H929 multiple myeloma cells (catalog #CRL-9068) were obtained from the American Type Culture Collection (ATTC, Manassas, VA). Briefly, cells were grown in RPMI-1640 medium supplemented with 20% heat-inactivated fetal bovine serum (catalog #A3840002, ThermoFisher Scientific, Waltham, MA), 1% Penicillin/Streptomycin/L-Glutamine (catalog #10378016, ThermoFisher Scientific, Waltham, MA), and 0.05 mM 2-mercaptoethanol (catalog #21985-023, ThermoFisher Scientific, Waltham, MA) at 37° C., 5% CO2, and 95% humidity. Cells were expanded until reaching one million five hundred thousand cells per mL at which time they were subcultured or harvested for assay use. One million five hundred thousand cells per well in 1 mL complete growth medium were dispensed into 12-well plates and incubated overnight. A serial dilution of test compound was added, and cells were incubated at 37° C., 5% CO2, and 95% for four hours. Cells were lysed then ATF4 levels were measured using an ELISA assay (Proteintech, Rosemont, IL). Absorbance is measured at 450 nm and 544 nM using a Synergy2 or equivalent reader (Biotek, Winooski VT). Data were analyzed using PRISM software (Graphpad, San Diego, CA) to calculate fold stimulation of cellular ATF4 relative to vehicle treated control.

[3] = test system: ATF4 in HCT116 colorectal cancer cells; assay: HCT116 amino acid starved (-AA) ATF4 assay (Western blot); format: cell-based; settings: Homo sapiens, HCT-116, 4 h
Experimental: (§1) HCT116 colorectal cancer cells (catalog #CCL-247) were obtained from the American Type Culture Collect (ATTC, Manassas, VA). Briefly, cells were grown in RPMI 1640 supplemented with 10% heat inactivated fetal bovine serum (Invitrogen, Carlsbad, CA) and 1% Penicillin/Streptomycin/L-Glutamine at 37° C., 5% CO2, and 95% humidity. Cells were expanded until reaching 70-95% confluency at which point they were subcultured or harvested for assay use. Cells were seeded in 12-well culture plate at five hundred thousand cells per well in 1 mL complete growth medium and incubated overnight at 37° C., 5% CO2, and 95% humidity. The next day each well was replaced with 1 mL Earle's Balanced Salt Solution (EBSS, Invitrogen, Carlsbad, CA) supplemented with 10% Dialyzed Fetal Bovine Serum, 5.5 mM Glucose, 1% Penicillin/Streptomycin and 1% Vitamin solution (thermo #11120052). A serial dilution of test compound was dispensed into well. Plates were incubated for 4 h at 37° C., 5% CO2, and 95% humidity. At the end of the incubation, cells were washed with PBS supplemented with 1× Halt protease inhibitor, 1× Halt phosphatase inhibitor, 1× Sigma phosphatase inhibitor cocktail 2 and 1×EDTA and then lysed with M-PER Mammalian Protein Extraction Reagent supplemented with 3× of the inhibitor mix as described above. Cell lysates were sonicated with water bath sonicator (Qsonica, Newtown, CT) and supernatants were boiled with SDS buffer and reducing agent. Western blot was performed on each lysate to quantify phospho-GCN2 (Thr899), total GCN2, ATF4 and beta-Actin. Membranes were imaged with LI-COR Odyssey CLx Imaging System (LI-COR, Lincoln, NE). Data were analyzed using GraphPad Prism software (GraphPad, San Diego, CA) to calculate IC50 values.

[4] = test system: phospho-GCN2 (Thr899) in HCT116 colorectal cancer cells; assay: HCT116 amino acid starved (-AA) phospho-GCN2 assay (Western blot); format: cell-based; settings: Homo sapiens, HCT-116, 4 h, read-out: HCT116-AA pGCN2 Western Blot
Experimental: as §1

Chain of PERK kinase (Q9NZJ5 other isoform, or with tags, fused parts or gaps): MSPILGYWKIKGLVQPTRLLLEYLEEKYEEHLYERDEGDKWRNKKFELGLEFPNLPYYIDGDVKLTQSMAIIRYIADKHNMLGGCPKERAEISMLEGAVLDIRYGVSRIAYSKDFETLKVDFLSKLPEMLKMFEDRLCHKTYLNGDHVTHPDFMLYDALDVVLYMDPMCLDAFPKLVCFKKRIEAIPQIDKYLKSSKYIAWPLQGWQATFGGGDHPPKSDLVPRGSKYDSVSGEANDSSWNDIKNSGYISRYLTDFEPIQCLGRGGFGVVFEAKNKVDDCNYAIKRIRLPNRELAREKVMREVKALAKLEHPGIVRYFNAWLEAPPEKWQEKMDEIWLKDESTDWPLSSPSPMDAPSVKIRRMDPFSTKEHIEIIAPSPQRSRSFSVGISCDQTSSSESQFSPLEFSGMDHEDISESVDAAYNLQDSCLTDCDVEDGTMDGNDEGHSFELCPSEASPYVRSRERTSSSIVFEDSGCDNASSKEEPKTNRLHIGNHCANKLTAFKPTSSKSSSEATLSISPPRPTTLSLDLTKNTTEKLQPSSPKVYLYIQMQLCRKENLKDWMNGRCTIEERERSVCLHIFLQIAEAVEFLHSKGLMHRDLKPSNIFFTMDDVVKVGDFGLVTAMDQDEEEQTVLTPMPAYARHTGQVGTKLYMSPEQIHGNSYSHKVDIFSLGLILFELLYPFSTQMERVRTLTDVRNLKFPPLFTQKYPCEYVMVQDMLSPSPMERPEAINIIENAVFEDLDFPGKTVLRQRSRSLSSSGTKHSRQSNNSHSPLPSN
Chain of GCN2 kinase (Q9P2K8 whole entry): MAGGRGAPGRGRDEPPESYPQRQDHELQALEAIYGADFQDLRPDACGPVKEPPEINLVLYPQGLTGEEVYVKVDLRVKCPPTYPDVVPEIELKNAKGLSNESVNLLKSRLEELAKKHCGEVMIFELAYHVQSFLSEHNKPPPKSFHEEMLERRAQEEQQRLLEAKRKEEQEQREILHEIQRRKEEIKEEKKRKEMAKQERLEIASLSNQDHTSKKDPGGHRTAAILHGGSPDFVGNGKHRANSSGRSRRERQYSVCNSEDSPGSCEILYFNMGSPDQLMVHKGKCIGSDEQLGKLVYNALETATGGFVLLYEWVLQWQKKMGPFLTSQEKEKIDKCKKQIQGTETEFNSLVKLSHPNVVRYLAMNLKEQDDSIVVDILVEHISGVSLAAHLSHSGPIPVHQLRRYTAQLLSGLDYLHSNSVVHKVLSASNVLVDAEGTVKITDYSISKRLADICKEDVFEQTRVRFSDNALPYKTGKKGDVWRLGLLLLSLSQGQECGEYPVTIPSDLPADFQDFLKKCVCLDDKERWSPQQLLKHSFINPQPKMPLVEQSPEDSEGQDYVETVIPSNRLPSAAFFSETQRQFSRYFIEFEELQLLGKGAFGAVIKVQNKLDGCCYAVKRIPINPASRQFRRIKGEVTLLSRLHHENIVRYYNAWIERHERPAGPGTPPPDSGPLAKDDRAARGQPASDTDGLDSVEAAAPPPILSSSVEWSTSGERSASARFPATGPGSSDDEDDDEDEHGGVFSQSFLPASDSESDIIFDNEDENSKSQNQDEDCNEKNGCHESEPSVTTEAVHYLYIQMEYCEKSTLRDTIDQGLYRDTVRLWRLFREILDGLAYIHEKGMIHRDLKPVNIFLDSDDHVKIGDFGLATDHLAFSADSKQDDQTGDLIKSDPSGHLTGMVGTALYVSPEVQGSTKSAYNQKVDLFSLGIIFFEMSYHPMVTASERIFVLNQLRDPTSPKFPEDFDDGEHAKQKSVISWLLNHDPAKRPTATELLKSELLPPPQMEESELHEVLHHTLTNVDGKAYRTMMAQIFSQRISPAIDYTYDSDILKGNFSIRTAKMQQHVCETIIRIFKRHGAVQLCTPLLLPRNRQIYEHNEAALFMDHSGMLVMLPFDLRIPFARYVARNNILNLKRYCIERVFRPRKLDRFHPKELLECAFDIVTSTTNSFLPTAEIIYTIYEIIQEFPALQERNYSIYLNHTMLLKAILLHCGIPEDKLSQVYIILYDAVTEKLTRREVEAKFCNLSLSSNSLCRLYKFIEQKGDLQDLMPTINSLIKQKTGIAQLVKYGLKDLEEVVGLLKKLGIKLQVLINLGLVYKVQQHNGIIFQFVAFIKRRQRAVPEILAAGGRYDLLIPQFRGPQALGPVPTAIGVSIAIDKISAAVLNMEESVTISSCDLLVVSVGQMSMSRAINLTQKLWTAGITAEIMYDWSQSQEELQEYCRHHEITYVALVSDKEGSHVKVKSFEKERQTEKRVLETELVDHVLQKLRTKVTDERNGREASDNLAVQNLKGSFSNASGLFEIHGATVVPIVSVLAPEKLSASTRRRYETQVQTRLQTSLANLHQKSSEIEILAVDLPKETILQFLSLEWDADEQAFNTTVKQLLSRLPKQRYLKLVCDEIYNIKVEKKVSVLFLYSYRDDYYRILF

Structure (SMILES)	IC50 [1]	IC50 (PERK kinase)	IC50 (GCN2 kinase)	IC50 (CCRF-CEM leukemia cells)	H929 NS ATF4 ELISA (fold stimulation of ATF4 relative to vehicle) [2]	IC50 [3]	IC50 [4]
CNc1ncc2cc(-c3cccc(NS(=O)(=O)c4cc(Cl)cc(CO)c4Cl)c3F)c(NC)nc2n1 [Example 175]	100 to 500 nM	≤ 100 nM	≤ 100 nM	≤ 100 nM	+++ (“+++” refers to an ATF4 stim greater than 10 fold and less than or equal to 20 fold)	–	–
COc1ncc(Cl)cc1S(=O)(=O)Nc1cc(F)cc(-c2cnc3nc(N)ncc3c2)c1 [Example 86]	–	1000 to 10000 nM	1000 to 10000 nM	–	+++ (“+++” refers to an ATF4 stim greater than 10 fold and less than or equal to 20 fold)	–	–
CNc1ncc2cc(-c3cccc(NS(=O)(=O)c4cc(Cl)cnc4OC)c3C(F)(F)F)ccc2n1 [Example 79]	–	100 to 500 nM	100 to 500 nM	–	+++ (“+++” refers to an ATF4 stim greater than 10 fold and less than or equal to 20 fold)	–	–
Cc1nc2cc(N)ncc2cc1-c1cccc(NS(=O)(=O)c2cc(Cl)cc(CO)c2Cl)c1F [Example 174]	≤ 100 nM	–	–	≤ 100 nM	+++ (“+++” refers to an ATF4 stim greater than 10 fold and less than or equal to 20 fold)	–	–
CNc1ncc2cc(-c3cc(NS(=O)(=O)c4cc(Cl)cnc4OC)ccc3Cl)c(C)nc2n1 [Example 68]	1000 to 10000 nM	≤ 100 nM	≤ 100 nM	≤ 100 nM	–	≤ 100 nM	≤ 100 nM
COc1nc2nc(N)ncc2cc1-c1cc(F)cc(NS(=O)(=O)c2cc(Cl)cnc2OC)c1 [Example 93]	1000 to 10000 nM	100 to 500 nM	≤ 100 nM	100 to 500 nM	–	100 to 500 nM	≤ 100 nM
COc1ncc(Cl)cc1S(=O)(=O)Nc1cccc(-c2cc3cnc(N)cc3nc2C)c1Cl [Example 121]	100 to 500 nM	≤ 100 nM	≤ 100 nM	≤ 100 nM	–	≤ 100 nM	≤ 100 nM
CNc1nc2nc(N)ncc2cc1-c1cc(F)cc(NS(=O)(=O)c2cc(Cl)cnc2OC)c1 [Example 96]	1000 to 10000 nM	100 to 500 nM	≤ 100 nM	100 to 500 nM	–	100 to 500 nM	≤ 100 nM
CNc1ncc2cc(-c3cccc(NS(=O)(=O)c4cc(Cl)cnc4OC)c3C)c(C)nc2n1 [Example 51]	1000 to 10000 nM	100 to 500 nM	≤ 100 nM	≤ 100 nM	–	≤ 100 nM	≤ 100 nM
CNc1ncc2cc(-c3cc(NS(=O)(=O)c4cc(Cl)cnc4OC)ccc3C)c(C)nc2n1 [Example 53]	1000 to 10000 nM	100 to 500 nM	≤ 100 nM	≤ 100 nM	–	≤ 100 nM	≤ 100 nM
COc1ncc(Cl)cc1S(=O)(=O)Nc1cccc(-c2cnc3cc(N)ncc3c2)c1F [Example 85]	1000 to 10000 nM	≤ 100 nM	≤ 100 nM	≤ 100 nM	–	≤ 100 nM	≤ 100 nM
CNc1ncc2cc(-c3cc(NS(=O)(=O)c4cc(Cl)cnc4OC)c(F)cc3C)c(C)nc2n1 [Example 17]	1000 to 10000 nM	100 to 500 nM	500 to 1000 nM	1000 to 10000 nM	–	1000 to 10000 nM	100 to 500 nM
COc1ncc(Cl)cc1S(=O)(=O)Nc1cc(F)cc(-c2cc3cnc(N)nc3nc2N)c1 [Example 92]	1000 to 10000 nM	≤ 100 nM	≤ 100 nM	≤ 100 nM	–	≤ 100 nM	≤ 100 nM
